From patent US20090318396A1, “CORTICOSTEROID LINKED BETA-AGONIST COMPOUNDS FOR USE IN THERAPY” (priority 2008, published 2009)

Key:
[1] = system: Ascaris suum antigen-induced bronchoconstriction and airway hyperreactivity; assay: Ascaris suum-induced pulmonary responses in sheep; format: in vivo
Procedure: One breath unit is defined as one breath of a 1% w/v carbachol solution. Test article was administered either by a pre-dosing or duration of action protocol. In the pre-dosing regimen, animals were dosed once daily for four days, with the last dose administered 1 hr before antigen. In the duration of action regimen, animals were dosed once daily for four days, with the last dose administered 24 hours before antigen. Test article, Ascaris antigen, and carbachol were administered by nebulized aerosol to intubated sheep.

[2] = system: tobacco-smoke-induced airway inflammation; assay: Tobacco smoke model of airway inflammation in mice; format: in vivo, female C3H mice; settings: for IL-1α / MIP-1α / Neutrophils: mean ± s.e.m.
Procedure: Vehicle and test articles are delivered by intratracheal instillation in 10% ethanol water to animals anesthetized with 3-5% isoflurane (n=8 animals per test article group). All compounds will be delivered on a daily (5 days per week) schedule for 3 weeks during the smoke exposures. Mice were exposed to cigarette smoke for 6 hours per day, 5 days per week for 3 weeks, in H1000 or H2000 chambers. Type 2R4F research cigarettes (Kentucky Tobacco Research and Development Center) were used in the study. Total particulate material (TPM) exposure was kept at […] for the first week to allow animals to reduce adverse effects during adaptation to smoke exposure. TPM exposure was maintained between 100 and 250 mg TPM/m^3 during the remainder of the study. After 3 weeks, animals were euthanized and bronchoalveolar lavage fluid was obtained for cell differentials and cytokine analysis by Luminex multiplex immunoassay.

CC[N+](CC)(CC(=O)OCC(=O)[C@@]12O[C@H](C3CCCCC3)O[C@@H]1C[C@H]1[C@@H]3CCC4=CC(=O)C=C[C@]4(C)[C@H]3[C@@H](O)C[C@@]12C)Cc1cc(C(O)CNCCCCCCOCCCCc2ccccc2)ccc1OP(=O)(O)O.[Cl-] (stereo partly drawn) [Example 52, [5-[1-hydroxy-2-[6-(4-phenylbutoxy)hexylamino]ethyl]-2-phosphonooxybenzyl]-(diethyl)-[[11β,16α]-[[15,16-((R)-cyclohexylmethylene)bis(oxy)]-11-hydroxypregna-1,4-diene-3,20-dion-21-yl]carbonylmethyl]ammonium chloride]
Bronchoconstriction, Lung Resistance (% Increase) ([1]; Duration of action regimen (last dose 24 hours before antigen), Post-Ascaris, Example 52 4.7 mg, ciclesonide 2.2 mg, salmeterol xinafoate 2.5 mg, n=4): 226 % Increase
Bronchoconstriction, Lung Resistance (% Increase) ([1]; Duration of action regimen, 1 hour, n=4): 95 % Increase
Bronchoconstriction, Lung Resistance (% Increase) ([1]; Duration of action regimen, 2 hours, n=4): 47 % Increase
Bronchoconstriction, Lung Resistance (% Increase) ([1]; Duration of action regimen, 3 hours, n=4): 17 % Increase
Bronchoconstriction, Lung Resistance (% Increase) ([1]; Duration of action regimen, 4 hours, n=4): 14 % Increase
Bronchoconstriction, Lung Resistance (% Increase) ([1]; Duration of action regimen, 5 hours, n=4): 25 % Increase
Bronchoconstriction, Lung Resistance (% Increase) ([1]; Duration of action regimen, 6 hours, n=4): 31 % Increase
Bronchoconstriction, Lung Resistance (% Increase) ([1]; Duration of action regimen, 6.5 hours, n=4): 26 % Increase
Bronchoconstriction, Lung Resistance (% Increase) ([1]; Duration of action regimen, 7 hours, n=4): 26 % Increase
Bronchoconstriction, Lung Resistance (% Increase) ([1]; Duration of action regimen, 7.5 hours, n=4): 20 % Increase
Bronchoconstriction, Lung Resistance (% Increase) ([1]; Duration of action regimen, 8 hours, n=4): 22 % Increase
Hyperreactivity PC400 ([1]; Duration of action regimen, Baseline, Example 52 4.7 mg, ciclesonide 2.2 mg, salmeterol xinafoate 2.5 mg, n=4): 27.8 carbachol breath units
Hyperreactivity PC400 ([1]; Duration of action regimen, Post-Antigen, n=4): 28 carbachol breath units
Bronchoconstriction, Lung Resistance (% Increase) ([1]; Predosing regimen (last dose 1 hr before antigen), Post-Ascaris, Example 52 4.7 mg, ciclesonide 2.2 mg, n=2): 220 % Increase
Bronchoconstriction, Lung Resistance (% Increase) ([1]; Predosing regimen, 1 hour, n=2): 118 % Increase
Bronchoconstriction, Lung Resistance (% Increase) ([1]; Predosing regimen, 2 hours, n=2): 69 % Increase
Bronchoconstriction, Lung Resistance (% Increase) ([1]; Predosing regimen, 3 hours, n=2): 34 % Increase
Bronchoconstriction, Lung Resistance (% Increase) ([1]; Predosing regimen, 4 hours, n=2): 9 % Increase
Bronchoconstriction, Lung Resistance (% Increase) ([1]; Predosing regimen, 5 hours, n=2): 24 % Increase
Bronchoconstriction, Lung Resistance (% Increase) ([1]; Predosing regimen, 6 hours, n=2): 34 % Increase
Bronchoconstriction, Lung Resistance (% Increase) ([1]; Predosing regimen, 6.5 hours, n=2): 19 % Increase
Bronchoconstriction, Lung Resistance (% Increase) ([1]; Predosing regimen, 7 hours, n=2): 23 % Increase
Bronchoconstriction, Lung Resistance (% Increase) ([1]; Predosing regimen, 7.5 hours, n=2): 28 % Increase
Bronchoconstriction, Lung Resistance (% Increase) ([1]; Predosing regimen, 8 hours, n=2): 14 % Increase
Hyperreactivity PC400 ([1]; Predosing regimen, Baseline, Example 52 4.7 mg, ciclesonide 2.2 mg, n=2): 27.5 carbachol breath units
Hyperreactivity PC400 ([1]; Predosing regimen, Post-Antigen (24 hours after challenge), n=2): 26.0 carbachol breath units
Effect on early phase bronchoconstriction ([1]; duration of action regimen): reduction
Effect on late phase bronchoconstriction and development of airway hyperreactivity ([1]; duration of action regimen): complete inhibition
IL-1α ([2]; 0.6 mg/kg i.t.): 2.54 ± 0.59 pg/mL
MIP-1α ([2]; 0.6 mg/kg i.t.): 4.34 ± 1.15 pg/mL
Neutrophils ([2]; 0.6 mg/kg i.t.): 7.7 ± 1.8 ×10^4/ml
IL-1α ([2]; 1.0 mg/kg i.t.): 2.74 ± 0.64 pg/mL
MIP-1α ([2]; 1.0 mg/kg i.t.): 7.0 ± 1.40 pg/mL
Neutrophils ([2]; 1.0 mg/kg i.t.): 8.5 ± 1.3 ×10^4/ml
Inhibition of tobacco-smoke-induced IL-1α and MIP-1α production ([2]; p<0.05 versus vehicle control at 1.0 and 0.6 mg/kg doses, 20-plex Luminex assay): exhibited inhibition
